Test results as given in patent US4075340A, “Thieno [2,3-C] pyridine derivatives and therapeutic composition containing same” (Parcor, priority 1975, dated 1978).
Structures can show the parent of a compound that is named as a salt. Where two headings read alike, the source gives them in different places.

Experiments:
[1] = tested on: blood platelet aggregation; assay: Inhibiting activity on blood platelet aggregation (adenosine diphosphate induced, turbidimetric assay); format: in vivo; settings: rat plasma, animals administered 100 mg/kg, read-out: percent inhibition on blood platelet aggregation
Experimental: Rat plasma, prepared to contain 600,000+20,000 blood platelets per mm3 is normally cloudy. Addition of adenosine diphosphate induces blood platelet aggregation and, thus an increase of the light transmission. When the same test is effected with a plasma prepared from the blood of an animal which has been administered 100 mg/kg of a derivative having an inhibiting effect on blood platelet aggregation, there is no aggregation of the blood platelets and the serum remains cloudy. The turbidimetric assay effected with a spectrophotometer provides a measure of the inhibiting activities of the test derivatives on blood platelet aggregation.

[2] = acute toxicity, LD50 /24 hrs/kg body weight, intravenous route, method according to Miller and Tainter; settings: in vivo
[3] = tested on: ovalbumin-induced systemic edema in rats; assay: Ovalbumin-induced Systemic Edema Method; format: in vivo; settings: Rattus norvegicus, oral 100 mg/kg, 1 hour before and with ovalbumin
Experimental: b) Ovalbumin-induced Systemic Edema Method
Rats are administered a simultaneous intraperitoneal injection of 1 ml ovalbumin and 0.5 ml of a 1% aqueous Evans Blue solution. The animals of the treated group are additionally administered orally 100 mg/kg of the test derivative, one hour prior to ovalbumin administration and then simultaneously with said ovalbumin administration. The intensity of the phenomenon thus induced is rated according to a scale from 1 to 5, according to the progress of the inflammatory syndrome. The measurements are effected after 2 hours and after 3 hours. Thus are determined the mean intensity of the edema and the percent decrease of the edema reaction.

[4] = tested on: carrageenin-induced edema in rats; assay: Localized Carrageenin-induced Edema Method; format: in vivo; settings: Rattus norvegicus, oral 100 mg/kg, repeated (1 hour before, with, 1 and 2.5 hours after carrageenin)
Experimental: a) Localized Carrageenin-induced Edema Method
0.1 ml of a 1% carrageenin solution is injected at time 0 in the metatarsal flexor muscles of the right hind limb of rats. The animals of the treated group are administered orally, additionally, 100 mg/kg of the test derivative, respectively one hour prior to and then simultaneously with the phlogogenic agent, and then one hour and 2.5 hours thereafter. The determinations effected with a ROCH micrometer at times 0, 1 hour, 2 hrs, 3 hrs and 5hrs after carrageenin administration, make it possible to determine the percent anti-inflammatory activity, as a function of time.

[5] = after 2 hours, read-out: Percent decrease (of the edema reaction) after 2 hours
[6] = after 3 hours, read-out: Percent decrease (of the edema reaction) after 3 hours
[7] = after 1 hour, read-out: Percent anti-inflammatory activity after 1 hour
[8] = after 2 hours, read-out: Percent anti-inflammatory activity after 2 hours
[9] = after 5 hours, read-out: Percent anti-inflammatory activity after 5 hours

CC1c2sccc2CCN1CC(O)c1ccccc1 (stereo not shown) [Derivative No. 7, 6-(2-hydroxy-2-phenyl-ethyl)-7-methyl-4,5,6,7-tetrahydro-thieno[2,3-c]pyridine]
inhibition at 100 mg/kg [1]: 85%

COc1cccc(CN2CCc3ccsc3C2)c1 [Derivative No. 20, 6-m.methoxybenzyl-4,5,6,7-tetrahydro-thieno-[2,3-c]pyridine, hydrochloride]
LD50 at 24 h [2]: 63 mg/kg

COc1ccc(C(O)CN2CCc3ccsc3C2)cc1 (stereo not shown) [compound 30]
inhibition in vivo at 100 mg/kg [3, 5]: 39%
inhibition in vivo at 100 mg/kg [3, 6]: 59%
inhibition in vivo at 100 mg/kg [4, 7]: 38%
inhibition in vivo at 100 mg/kg [4, 8]: 44%
inhibition in vivo at 100 mg/kg [4, 9]: 51%

COc1cccc(C(CN2CCc3ccsc3C2)OC(C)=O)c1 (stereo not shown) [Derivative No. 10, 6-(2-acetoxy-2m.methoxyphenyl-ethyl)-4,5,6,7-tetrahydro-thieno[2,3-c]pyridine]
LD50 at 24 h [2]: 80 mg/kg

CC(=O)OC(CN1CCc2ccsc2C1)c1ccc(Cl)cc1 (stereo not shown) [Derivative No. 8, 6-(2-acetoxy-2-p-chlorophenyl-ethyl)-4,5,6,7-tetrahydro-thieno[2,3-c]pyridine]
inhibition in vivo at 100 mg/kg [3, 5]: 45%
inhibition in vivo at 100 mg/kg [3, 6]: 58%
inhibition in vivo at 100 mg/kg [4, 7]: 40%
inhibition in vivo at 100 mg/kg [4, 8]: 49%
inhibition in vivo at 100 mg/kg [4, 9]: 59%

OC(CN1CCc2ccsc2C1)c1ccccc1 (stereo not shown) [compound 23]
inhibition in vivo at 100 mg/kg [3, 5]: 50%
inhibition in vivo at 100 mg/kg [3, 6]: 61%
inhibition in vivo at 100 mg/kg [4, 7]: 39%
inhibition in vivo at 100 mg/kg [4, 8]: 51%
inhibition in vivo at 100 mg/kg [4, 9]: 58%

COc1cccc(C(CN2CCc3ccsc3C2)OC(C)=O)c1 (stereo not shown) [compound 10]
inhibition in vivo at 100 mg/kg [3, 5]: 48%
inhibition in vivo at 100 mg/kg [3, 6]: 55%
inhibition in vivo at 100 mg/kg [4, 7]: 43%
inhibition in vivo at 100 mg/kg [4, 8]: 50%
inhibition in vivo at 100 mg/kg [4, 9]: 56%

COc1ccc(OC)c(C(O)CN2CCc3ccsc3C2C)c1 (stereo not shown) [Derivative No. 34, 6-[2-(2,5-dimethoxy-phenyl)-2-hydroxy-ethyl]-7-methyl-4,5,6,7-tetrahydro-thieno[2,3-c]pyridine]
LD50 at 24 h [2]: 84 mg/kg

Cc1c2sccc2cc[n+]1CC(=O)c1ccccc1.[Br-] [Derivative No. 39, 7-methyl-6-phenacyl-thieno[2,3-c]pyridinium bromide]
LD50 at 24 h [2]: 35 mg/kg

O=[N+]([O-])c1ccc(CN2CCc3ccsc3C2)cc1 [Derivative No. 12, 6-p-nitrobenzyl-4,5,6,7-tetrahydro-thieno[2,3-c]pyridine]
inhibition at 100 mg/kg [1]: 75%

CC(O)CN1CCc2ccsc2C1.Cl (stereo not shown) [Derivative No. 9, 6-(2-hydroxy-propyl)-4,5,6,7-tetrahydro-thieno[2,3-c]pyridine, hydrochloride]
LD50 at 24 h [2]: 120 mg/kg
inhibition at 100 mg/kg [1]: 89%

COc1cccc(C(O)CN2CCc3ccsc3C2C)c1 (stereo not shown) [Derivative No. 33, 6-(2-hydroxy-2-m.methoxyphenyl-ethyl)-7-methyl-4,5,6,7,-tetrahydro-thieno[2,3-c]pyridine]
inhibition at 100 mg/kg [1]: 74%

CC(=O)CCN1CCc2ccsc2C1.O=C(O)/C=C\C(=O)O [Derivative No. 36, 6-(3-oxo-butyl)-4,5,6,7-tetrahydro-thieno[2,3-c]-pyridine, maleate]
LD50 at 24 h [2]: 16 mg/kg

COc1ccc(CN2CCc3ccsc3C2)cc1 [Derivative No. 18, 6-p.methoxybenzyl-4,5,6,7-tetrahydro-thieno[2,3-c]pyridine, hydrochloride]
LD50 at 24 h [2]: 60 mg/kg
inhibition at 100 mg/kg [1]: 78%

O=C(O)c1ccccc1CN1CCc2ccsc2C1 [Derivative No. 5, 6-o-carboxybenzyl-4,5,6,7-tetrahydro-thieno[2,3-c]pyridine]
inhibition in vivo at 100 mg/kg [3, 5]: 42%
inhibition in vivo at 100 mg/kg [3, 6]: 61%
inhibition in vivo at 100 mg/kg [4, 7]: 44%
inhibition in vivo at 100 mg/kg [4, 8]: 52%
inhibition in vivo at 100 mg/kg [4, 9]: 60%

Fc1ccccc1CN1CCc2ccsc2C1 [Derivative No. 26, 6-o.fluorobenzyl-4,5,6,7-tetrahydro-thieno[2,3-c]pyridine, fumarate]
LD50 at 24 h [2]: 87 mg/kg

Clc1ccc(CN2CCc3ccsc3C2)cc1 [Derivative No. 21, 6-p.chlorobenzyl-4,5,6,7-tetrahydro-thieno[2,3-c]pyridine, hydrochloride]
LD50 at 24 h [2]: 55 mg/kg
inhibition at 100 mg/kg [1]: 91%

COc1ccc(CN2CCc3ccsc3C2)c(OC)c1OC [compound 28]
inhibition in vivo at 100 mg/kg [3, 5]: 45%
inhibition in vivo at 100 mg/kg [3, 6]: 63%
inhibition in vivo at 100 mg/kg [4, 7]: 43%
inhibition in vivo at 100 mg/kg [4, 8]: 52%
inhibition in vivo at 100 mg/kg [4, 9]: 61%

COc1cc(CN2CCc3ccsc3C2)cc(OC)c1OC.O=C(O)/C=C\C(=O)O [Derivative No. 17, 6-(3,4,5-trimethoxy-benzyl)-4,5,6,7-tetrahydro-thieno[2,3-c]pyridine, maleate]
LD50 at 24 h [2]: 80 mg/kg

OC(CN1CCc2ccsc2C1)c1ccc(F)cc1 (stereo not shown) [Derivative No. 29, 6-(2-hydroxy-2-p.fluorophenyl-ethyl)-4,5,6,7-tetrahydro-thieno[2,3-c]pyridine]
LD50 at 24 h [2]: 60 mg/kg
inhibition at 100 mg/kg [1]: 89%

COc1ccc(OC)c(C(O)CN2CCc3ccsc3C2C)c1 (stereo not shown) [compound 34]
inhibition in vivo at 100 mg/kg [3, 5]: 45%
inhibition in vivo at 100 mg/kg [3, 6]: 61%
inhibition in vivo at 100 mg/kg [4, 7]: 37%
inhibition in vivo at 100 mg/kg [4, 8]: 48%
inhibition in vivo at 100 mg/kg [4, 9]: 58%

Cc1ccc(CN2CCc3ccsc3C2)cc1 [Derivative No. 24, 6-p.methylbenzyl-4,5,6,7-tetrahydro-thieno[2,3-c]pyridine, hydrochloride]
LD50 at 24 h [2]: 45 mg/kg
inhibition at 100 mg/kg [1]: 78%

OC(CN1CCc2ccsc2C1)c1ccc(Cl)cc1 (stereo not shown) [Derivative No. 27, 6-(2-hydroxy-2-p.chlorophenyl-ethyl)-4,5,6,7-tetrahydro-thieno[2,3-c]pyridine]
LD50 at 24 h [2]: 45 mg/kg
inhibition at 100 mg/kg [1]: 86%

Cl.OC(CN1CCc2ccsc2C1)c1ccccc1 (stereo not shown) [Derivative No. 23, 6-(2-hydroxy-2-phenyl-ethyl)-4,5,6,7-tetrahydro-thieno[2,3-c]pyridine, hydrochloride]
LD50 at 24 h [2]: 67 mg/kg

COc1ccc(CN2CCc3ccsc3C2)cc1OC.Cl [Derivative No. 25, 6-(3,4-dimethoxy-benzyl)-4,5,6,7-tetrahydro-thieno[2,3-c]pyridine, hydrochloride]
LD50 at 24 h [2]: 90 mg/kg

COc1ccc(C(=O)C[n+]2ccc3ccsc3c2C)cc1.[Br-] [Derivative No. 44, 7-methyl-6-p-methoxyphenacyl-thieno[2,3-c]pyridinium bromide]
LD50 at 24 h [2]: 51 mg/kg

OC(CN1CCc2ccsc2C1)C(Cl)(Cl)Cl (stereo not shown) [Derivative No. 37, 6-(2-hydroxy-3,3,3-trichloro-propyl)-4,5,6,7-tetrahydro-thieno[2,3-c]pyridine]
LD50 at 24 h [2]: 18 mg/kg

COc1ccc(OCC(O)CN2CCc3ccsc3C2)cc1 (stereo not shown) [Derivative No. 35, 6-(2-hydroxy-3-p.methoxyphenoxy-propyl)-4,5,6,7-tetrahydro-thieno[2,3-c]pyridine, hydrochloride]
LD50 at 24 h [2]: 19 mg/kg

CC1c2sccc2CCN1CCc1ccccc1 (stereo not drawn) [Derivative No. 31, 7-methyl-6-β-phenethyl-4,5,6,7-tetrahydro-thieno[2,3-c]pyridine, maleate]
LD50 at 24 h [2]: 53 mg/kg

c1ccc(CCN2CCc3ccsc3C2)cc1 [Derivative No. 19, 6-β-phenethyl-4,5,6,7-tetrahydro-thieno[2,3-c]pyridine, hydrochloride]
LD50 at 24 h [2]: 48 mg/kg

COc1cc(CN2CCc3ccsc3C2C)cc(OC)c1OC (stereo not shown) [Derivative No. 3, 7-methyl-6-(3,4,5-trimethoxy-benzyl)-4,5,6,7-tetrahydro-thieno[2,3-c]pyridine]
inhibition at 100 mg/kg [1]: 91%

Clc1ccc(CN2CCc3ccsc3C2)s1 [Derivative No. 6, 6-[2-(5-chloro-thienyl)-methyl]-4,5,6,7-tetrahydro-thieno[2,3-c]pyridine]
LD50 at 24 h [2]: 135 mg/kg

COc1ccc(CN2CCc3ccsc3C2)cc1OC [Derivative No. 38, 6-(3,4-dimethoxy-benzyl)-4,5,6,7-tetrahydro-thieno[2,3-c]pyridine]
LD50 at 24 h [2]: 22 mg/kg

Cl.O=[N+]([O-])c1ccccc1CN1CCc2ccsc2C1 [Derivative No. 11, 6-o-nitrobenzyl-4,5,6,7-tetrahydro-thieno[2,3-c]pyridine, hydrochloride]
LD50 at 24 h [2]: 160 mg/kg

CCCCCCCCCCCCN1CCc2ccsc2C1 [Derivative No. 1, 6-n-dodecyl-4,5,6,7-tetrahydro-thieno[2,3-c]pyridine]
inhibition in vivo at 100 mg/kg [3, 5]: 36%
inhibition in vivo at 100 mg/kg [3, 6]: 51%
inhibition in vivo at 100 mg/kg [4, 7]: 38%
inhibition in vivo at 100 mg/kg [4, 8]: 46%
inhibition in vivo at 100 mg/kg [4, 9]: 54%
